Results published in ChEMBL document CHEMBL1123767, “High-affinity leukotriene receptor antagonists. Synthesis and pharmacological characterization of 2-hydroxy-3-[(2-carboxyethyl)thio]-3-[2-(8-phenyloctyl)phenyl] propanoic acid” (J Med Chem, 1987).
Blank lines part the entries; values can stand above or below the compound they belong to.

Assays:
[1] = species: Homo sapiens; experiment: Ability to antagonize LTD4-induced contractions of human airway smooth muscle (bronchus) at 10 uM concentration; assay type: functional
[2] = species: Cavia porcellus; experiment: In vitro ability to antagonize LTD4-induced contractions of guinea pig smooth muscle (trachea) at 10 uM concentration.; assay type: functional
[3] = species: Homo sapiens; experiment: In vitro ability to antagonize LTC4-induced contractions of human smooth muscle (bronchus) at 10 uM concentration.; assay type: functional
[4] = species: Cavia porcellus; experiment: (§1) In vitro ability to antagonize LTC4-induced contractions of guinea pig smooth muscle (trachea) at 10 uM concentration.; assay type: functional
[5] = target: T1, Cysteinyl leukotriene receptor 1 (Cavia porcellus, UniProt Q2NNR5); experiment: Binding affinity against Cysteinyl leukotriene D4 receptor in guinea pig lung membranes using [3H]LTD4 as the radioligand.; assay type: cell membranes, Membrane
T1 sequence (Q2NNR5 whole entry): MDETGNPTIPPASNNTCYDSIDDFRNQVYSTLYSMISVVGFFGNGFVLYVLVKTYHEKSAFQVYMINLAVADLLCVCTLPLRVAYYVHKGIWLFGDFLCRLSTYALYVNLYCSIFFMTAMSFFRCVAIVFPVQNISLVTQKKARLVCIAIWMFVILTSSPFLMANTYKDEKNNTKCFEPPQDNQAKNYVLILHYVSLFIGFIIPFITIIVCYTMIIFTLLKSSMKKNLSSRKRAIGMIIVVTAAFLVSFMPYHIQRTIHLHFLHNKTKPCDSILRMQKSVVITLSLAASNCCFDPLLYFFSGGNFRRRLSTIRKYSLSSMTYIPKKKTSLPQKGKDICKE

[6] = target: T2, Cysteinyl leukotriene receptor 1 (Cavia porcellus) (UniProt Q2NNR5); experiment: as §1; assay type: functional, tissue-based
T2 sequence (whole entry): T1 sequence (Q2NNR5 whole entry)

[7] = species: Cavia porcellus; experiment: In vitro ability to antagonize LTD4-induced contractions of guinea pig smooth muscle (trachea) at 3 uM concentration.; assay type: functional
[8] = target: T2, Cysteinyl leukotriene receptor 1 (Cavia porcellus); settings: Trachea, 3 uM
Description: In vitro ability to antagonize LTC4-induced contractions of guinea pig smooth muscle (trachea) at 3 uM concentration.

[9] = species: Homo sapiens; experiment: In vitro ability to antagonize LTC4-induced contractions of human smooth muscle (bronchus) at 3 uM concentration.; assay type: functional
[10] = target: T3, Cysteinyl leukotriene receptor 1 (Homo sapiens, UniProt Q9Y271); experiment: Binding affinity against Cysteinyl leukotriene D4 receptor in human lung membranes using [3H]LTD4 as the radioligand.; assay type: cell membranes, Membrane
T3 sequence (Q9Y271 whole entry): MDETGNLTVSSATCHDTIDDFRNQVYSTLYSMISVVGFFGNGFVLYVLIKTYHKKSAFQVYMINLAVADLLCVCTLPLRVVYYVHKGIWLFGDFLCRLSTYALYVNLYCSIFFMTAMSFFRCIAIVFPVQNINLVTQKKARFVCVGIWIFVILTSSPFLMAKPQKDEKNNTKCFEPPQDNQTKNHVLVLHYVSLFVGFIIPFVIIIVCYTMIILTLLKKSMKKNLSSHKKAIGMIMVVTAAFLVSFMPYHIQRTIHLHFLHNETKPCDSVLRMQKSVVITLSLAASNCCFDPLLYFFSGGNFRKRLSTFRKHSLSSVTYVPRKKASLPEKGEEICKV

[11] = species: Homo sapiens; experiment: In vitro ability to antagonize LTD4-induced contractions of human airway smooth muscle (bronchus) at 3 uM concentration; assay type: functional

SMILES: CCCc1c(OCC(O)COc2ccc3c(=O)cc(C(=O)O)oc3c2CCC)ccc(C(C)=O)c1O (stereo not given) [FPL-55712]
- pKb [1]: 5.8
- pKb [2]: 6.7
- pKb [3]: 6.4
- pKb [4]: 4.9

- Ki [5]: 180 nM
SMILES: O=C(O)CCS[C@@H](c1ccccc1CCCCCCCCc1ccccc1)[C@H](O)C(=O)O
- pKb [2]: 6.1

- pKb [6]: 5.1
- Ki [5]: 60 nM
SMILES: O=C(O)CCSC(CC(=O)O)c1ccccc1CCCCCCCCc1ccccc1 (stereo not given)
- pKb [2]: 7

- pKb [8]: < 5.4
- Ki [10]: 10 nM
- Ki [5]: 5 nM
SMILES: O=C(O)CCS[C@H](c1ccccc1CCCCCCCCc1ccccc1)[C@@H](O)C(=O)O [POBILUKAST]
- pKb [7]: 8.6
- pKb [9]: 8.3
- pKb [11]: 8.2
